Test results: patent publication US20110230476A1, “PI3 KINASE INHIBITORS AND USES THEREOF” (AVILA THERAPEUTICS, INC., priority 2009, published 2011)

Key:
[1] = biological target: T1, PI3Kα (p110α/p85α) (Homo sapiens, UniProt P42336); test: HTRF assay, potency against active PI3Kα; assay type: biochemical; settings: HTRF; [ATP]=50 μM, [di-C8-PIP2]=10 μM; 30 min pre-incubation; read-out: PI3Kα Inhibition
T1 construct: purchased BPS Bioscience (San Diego, Calif.) or Millipore (Billerica, Mass.)
How it was run: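 IC50 came from a variable-slope fit of % inhibition, calculated from the HTRF emission ratio relative to wells with and without enzyme. Reactions with the active enzyme complex ran 30-60 minutes at 25 °C after ATP addition before stop and detection reagents.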

[2] = test system: PI3K; test: PI3K HCT116 cellular assay (Western blot); assay type: cell-based; settings: Homo sapiens, HCT-116, HCT116 colon cancer cells, 1 hour incubation, read-out: PI3K Inhibition
Experimental: PI3K HCT116 Cellular Assay
Selected compounds were assayed in HCT116 colon cancer cells. […] Cells were then washed with PBS, lysed and the protein lysates were then recovered and analyzed by Western blot.

[3] = biological target: T2, PI3Kγ (p120γ) (Homo sapiens, UniProt P48736); test: HTRF assay, potency against active PI3Kγ; assay type: biochemical; settings: [ATP]=50 μM, [di-C8-PIP2]=10 μM, 30 min pre-incubation, read-out: PI3Kγ Inhibition
T2 construct: purchased BPS Bioscience (San Diego, Calif.) or Millipore (Billerica, Mass.)
T2 sequence (P48736 whole entry): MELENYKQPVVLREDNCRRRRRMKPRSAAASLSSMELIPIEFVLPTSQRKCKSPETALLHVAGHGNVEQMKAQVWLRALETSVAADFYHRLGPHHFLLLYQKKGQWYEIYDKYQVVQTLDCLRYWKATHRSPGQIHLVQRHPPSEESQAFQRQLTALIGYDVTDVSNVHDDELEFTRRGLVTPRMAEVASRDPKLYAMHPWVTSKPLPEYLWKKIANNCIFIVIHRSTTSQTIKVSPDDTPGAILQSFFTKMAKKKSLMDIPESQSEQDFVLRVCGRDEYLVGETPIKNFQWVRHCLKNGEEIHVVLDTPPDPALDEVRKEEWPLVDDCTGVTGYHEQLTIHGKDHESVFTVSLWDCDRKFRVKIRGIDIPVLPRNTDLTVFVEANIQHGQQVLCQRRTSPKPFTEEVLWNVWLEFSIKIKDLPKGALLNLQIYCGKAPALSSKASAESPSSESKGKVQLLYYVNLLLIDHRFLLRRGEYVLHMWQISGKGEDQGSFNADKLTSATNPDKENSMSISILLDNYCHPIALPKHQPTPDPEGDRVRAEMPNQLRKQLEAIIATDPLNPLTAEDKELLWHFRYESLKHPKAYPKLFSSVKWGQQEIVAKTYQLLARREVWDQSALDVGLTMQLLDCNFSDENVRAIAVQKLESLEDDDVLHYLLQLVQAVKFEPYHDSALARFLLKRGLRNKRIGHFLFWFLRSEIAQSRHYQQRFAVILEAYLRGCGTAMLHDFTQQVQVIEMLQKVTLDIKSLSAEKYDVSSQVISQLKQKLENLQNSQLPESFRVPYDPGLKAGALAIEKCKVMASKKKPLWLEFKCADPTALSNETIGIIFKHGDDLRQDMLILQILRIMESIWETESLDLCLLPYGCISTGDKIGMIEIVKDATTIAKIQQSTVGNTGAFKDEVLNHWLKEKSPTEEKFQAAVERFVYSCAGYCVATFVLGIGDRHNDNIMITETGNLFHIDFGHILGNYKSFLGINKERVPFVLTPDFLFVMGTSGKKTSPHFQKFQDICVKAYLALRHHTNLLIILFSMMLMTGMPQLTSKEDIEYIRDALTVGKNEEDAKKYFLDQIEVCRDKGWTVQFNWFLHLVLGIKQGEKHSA
From the text: Homogeneous Time Resolved Fluorescence (HTRF) Assay Protocol for Potency Assessment Against the Active Forms of PI3Kα, PI3Kβ, and PI3Kγ
The protocol below describes an end-point, competition-binding HTRF assay used to measure inherent potency of test compounds against active PI3Kα (p110α/p85α), PI3Kβ (p110β/p85α), and PI3Kγ (p120γ) enzymes. The mechanics of the assay platform are best described by the vendor (Millipore, Billerica, Mass.) on their website at the following URL: www.millipore.com/coa/tech1/74jt4z.
Briefly, Stop solution (Stop A, #33-007 and Stop B, #33-009; 3:1 ratio) and Detection Mix (from DMC, #33-015 with DMA, #33-011 and DMB, #33-013; 18:1:1 ratio) were prepared as recommended by the manufacturer about 2 hrs prior to use. Additionally, 1× reaction buffer (from 4× buffer stock# 33-003), 1.4× stocks of PI3Kα, PI3Kβ, and PI3Kγ enzymes from BPS Bioscience (San Diego, Calif.) or Millipore (Billerica, Mass.) with di-C8-PIP2 lipid substrate (#33-005), and a 4×ATP solution (#A7699 Sigma/Aldrich; St. Louis, Mo.) were prepared in 1× reaction buffer. 15 μL of PI3K enzymes and lipid substrate mix were pre-incubated in a Corning (#3573) 384-well, black, non-treated microtiter plate (Corning, N.Y.) for 30 min at 25° C. with a 0.5 μL volume of 50% DMSO and serially diluted compounds prepared in 50% DMSO. Lipid kinase reactions were started with the addition of 5 μL of ATP solution, mixed for 15 sec on a rotary plate shaker and incubated for 30-60 minutes at 25° C. Next, reactions were stopped with a 5 μL addition of Stop solution immediately followed by a 5 μL volume of Detection Mix. Stopped reactions were equilibrated for 1 and 18 hrs at room temperature and read in a Synergy^4 plate reader from BioTek (Winooski, Vt.) at λex330-80/λem620-35 and λem665-7.5. At the conclusion of each assay, the HTRF ratio from fluorescence emission values for each well was calculated and % Inhibition determined from averaged controls wells (+/−PI3K enzyme). % Inhibition values for each compound were then plotted against inhibitor concentration to estimate IC50 from log [Inhibitor] vs Response, Variable Slope model in GraphPad Prism from GraphPad Software (San Diego, Calif.).
[Reagent] used in optimized protocol: • [p110α/p85α]=0.5-1.5 nM, [ATP]=50 μM, [di-C8—PIP2]=10 μM • [p110β/p85α]=0.75 nM, [ATP]=50 μM, [di-C8—PIP2]=10 μM • [p120γ]=2-2.5 nM, [ATP]=50 μM, [di-C8—PIP2]=10 μM • (ATP KMapp for both enzymes was estimated to be 40-70 μM)

T1 sequence (P42336 whole entry): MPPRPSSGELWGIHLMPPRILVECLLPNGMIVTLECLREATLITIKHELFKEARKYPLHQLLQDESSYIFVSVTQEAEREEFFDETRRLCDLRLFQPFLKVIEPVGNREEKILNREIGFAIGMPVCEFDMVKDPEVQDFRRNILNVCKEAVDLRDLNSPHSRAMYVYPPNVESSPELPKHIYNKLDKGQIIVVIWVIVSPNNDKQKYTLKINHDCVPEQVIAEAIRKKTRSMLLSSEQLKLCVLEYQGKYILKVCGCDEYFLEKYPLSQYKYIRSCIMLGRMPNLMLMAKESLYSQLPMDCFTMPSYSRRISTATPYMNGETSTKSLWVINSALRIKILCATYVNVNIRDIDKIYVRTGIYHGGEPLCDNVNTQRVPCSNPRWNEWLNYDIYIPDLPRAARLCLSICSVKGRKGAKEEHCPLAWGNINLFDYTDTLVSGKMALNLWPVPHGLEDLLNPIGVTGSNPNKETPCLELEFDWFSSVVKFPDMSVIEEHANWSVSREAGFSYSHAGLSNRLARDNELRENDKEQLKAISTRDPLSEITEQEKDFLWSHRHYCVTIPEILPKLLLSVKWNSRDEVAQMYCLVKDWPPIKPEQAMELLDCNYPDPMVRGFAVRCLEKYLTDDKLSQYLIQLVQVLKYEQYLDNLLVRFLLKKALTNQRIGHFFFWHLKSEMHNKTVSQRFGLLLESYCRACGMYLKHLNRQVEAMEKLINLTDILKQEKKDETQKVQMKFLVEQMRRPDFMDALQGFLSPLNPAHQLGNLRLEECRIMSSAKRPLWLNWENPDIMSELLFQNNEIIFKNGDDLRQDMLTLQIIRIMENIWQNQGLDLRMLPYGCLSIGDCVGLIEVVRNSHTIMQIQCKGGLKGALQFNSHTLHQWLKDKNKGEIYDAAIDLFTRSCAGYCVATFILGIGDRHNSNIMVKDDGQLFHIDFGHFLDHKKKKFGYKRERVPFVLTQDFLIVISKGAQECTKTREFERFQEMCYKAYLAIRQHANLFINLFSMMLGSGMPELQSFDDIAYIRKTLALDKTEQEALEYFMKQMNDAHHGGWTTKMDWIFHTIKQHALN
T1 sequence (P27986 whole entry partner): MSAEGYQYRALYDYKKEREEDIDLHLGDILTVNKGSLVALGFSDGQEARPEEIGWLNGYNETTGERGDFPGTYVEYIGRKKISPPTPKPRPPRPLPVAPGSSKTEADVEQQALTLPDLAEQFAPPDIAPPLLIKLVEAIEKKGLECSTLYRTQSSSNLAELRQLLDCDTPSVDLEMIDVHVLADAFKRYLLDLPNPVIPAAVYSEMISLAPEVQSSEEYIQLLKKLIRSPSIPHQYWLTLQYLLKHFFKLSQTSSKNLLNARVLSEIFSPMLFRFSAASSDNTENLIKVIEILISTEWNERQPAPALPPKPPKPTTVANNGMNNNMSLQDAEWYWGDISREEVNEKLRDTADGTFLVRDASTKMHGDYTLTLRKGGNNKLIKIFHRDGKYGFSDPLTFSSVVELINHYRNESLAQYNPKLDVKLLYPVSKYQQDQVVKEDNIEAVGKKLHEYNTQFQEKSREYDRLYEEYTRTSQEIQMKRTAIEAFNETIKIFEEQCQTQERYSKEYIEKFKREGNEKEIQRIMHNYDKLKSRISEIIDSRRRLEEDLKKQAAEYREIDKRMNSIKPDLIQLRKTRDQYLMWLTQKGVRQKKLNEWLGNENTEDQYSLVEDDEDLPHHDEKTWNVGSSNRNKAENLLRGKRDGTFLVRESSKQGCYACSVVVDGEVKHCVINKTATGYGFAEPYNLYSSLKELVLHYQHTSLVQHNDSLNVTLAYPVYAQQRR

Row | Compound | IC50 [1] [nM] | EC50 [2] [nM] | IC50 [3] [nM]
1 | C=CC(=O)NC1CCC(C(=O)N(C)Cc2cc3nc(-c4cccc(O)c4)nc(N4CCOCC4)c3s2)CC1 (racemic) [II-a-35, (±)-4-acrylamido-N-((2-(3-hydroxyphenyl)-4-morpholinothieno[3,2-d]pyrimidin-6-yl)methyl)-N-methylcyclohexanecarboxamide] | 100 to 1000 | 100 to 500 | 100 to 1000
2 | C/C=C/C(=O)CCC(=O)N1CCN(CC#Cc2cc3nc(-c4cccc(O)c4)nc(N4CCOCC4)c3s2)CC1 [II-a-48, (E)-1-(4-(3-(2-(3-hydroxyphenyl)-4-morpholinothieno[3,2-d]pyrimidin-6-yl)prop-2-ynyl)piperazin-1-yl) hept-5-ene-1,4-dione] | < 10 | 20 to 100 | > 1000
3 | C/C=C/C(=O)CCC(=O)NCCS(=O)(=O)N1CCN(Cc2cc3nc(-c4cccc(O)c4)nc(N4CCOCC4)c3s2)CC1 [II-a-26, (E)-N-(2-(4-((2-(3-hydroxyphenyl)-4-morpholinothieno[3,2-d]pyrimidin-6-yl)methyl)piperazin-1-ylsulfonyl)ethyl)-4-oxohept-5-enamide] | 10 to 100 | 20 to 100 | 100 to 1000
4 | C=CS(=O)(=O)N1CCN(Cc2cc3nc(-c4cccc5[nH]ncc45)nc(N4CCOCC4)c3s2)CC1 [II-a-1] | 100 to 1000 | – | 100 to 1000
5 | C=CC(=O)N(C)CC(=O)N1CCN(Cc2cc3nc(-c4cccc5[nH]ncc45)nc(N4CCOCC4)c3s2)CC1 [II-a-44, N-(2-(4-((2-(1H-indazol-4-yl)-4-morpholinothieno[3,2-d]pyrimidin-6-yl)methyl)piperazin-1-yl)-2-oxoethyl)-N-methylacrylamide] | > 1000 | – | > 1000
6 | C=CC(=O)N1CCN(Cc2cc3nc(-c4ccccc4)nc(N4CCOCC4)c3s2)CC1 [II-a-17, 1-(4-((4-morpholino-2-phenylthieno[3,2-d]pyrimidin-6-yl)methyl)piperazin-1-yl)prop-2-en-1-one] | > 1000 | – | > 1000
7 | CC(C)=CC(=O)CCC(=O)NCC(=O)N1CCN(Cc2cc3nc(-c4cccc5[nH]ncc45)nc(N4CCOCC4)c3s2)CC1 [II-a-41, N-(2-(4-((2-(1H-indazol-4-yl)-4-morpholinothieno[3,2-d]pyrimidin-6-yl)methyl)piperazin-1-yl)-2-oxoethyl)-6-methyl-4-oxohept-5-enamide] | > 1000 | – | > 1000
8 | C=CC(=O)N1CCN(C(=O)C2CCN(Cc3cc4nc(-c5cccc6[nH]ncc56)nc(N5CCOCC5)c4s3)CC2)CC1 [II-a-31, 1-(4-(1-((2-(1H-indazol-4-yl)-4-morpholinothieno[3,2-d]pyrimidin-6-yl)methyl)piperidine-4-carbonyl)piperazin-1-yl)prop-2-en-1-one] | 100 to 1000 | – | > 1000
9 | O=C1NC(=O)/C(=C/c2ccc3nccc(-c4ccncc4)c3c2)S1 [GSK-615, reference compound] | – | < 20 | –
10 | C=CC(=O)NCC(=O)N1CCN(Cc2cc3nc(-c4cccc(O)c4)nc(N4CCOCC4)c3s2)CC1 [II-a-38, N-(2-(4-((2-(3-hydroxyphenyl)-4-morpholinothieno[3,2-d]pyrimidin-6-yl)methyl)piperazin-1-yl)-2-oxoethyl)acrylamide] | 10 to 100 | – | > 1000
11 | C=CC(=O)NCC(=O)NCC(=O)N1CCN(Cc2cc3nc(-c4cccc5[nH]ncc45)nc(N4CCOCC4)c3s2)CC1 [II-a-32, N-(2-(2-(4-((2-(1H-indazol-4-yl)-4-morpholinothieno[3,2-d]pyrimidin-6-yl)methyl)piperazin-1-yl)-2-oxoethylamino)-2-oxoethyl)acrylamide] | 100 to 1000 | – | > 1000
12 | CN(C/C=C/C(=O)CCC(=O)N1CCN(Cc2cc3nc(-c4cccc5[nH]ncc45)nc(N4CCOCC4)c3s2)CC1)C(=O)OC(C)(C)C [II-a-24] | 10 to 100 | – | > 1000

More lines, now with the values ahead:

Row | IC50 [1] [nM] | EC50 [2] [nM] | IC50 [3] [nM] | Compound
13 | 100 to 1000 | – | > 1000 | C=CC(=O)N1CCN(C(=O)c2ccc(-c3cc4nc(-c5cccc6[nH]ncc56)nc(N5CCOCC5)c4s3)cc2)CC1 [II-a-57, 1-(4-(4-(2-(1H-indazol-4-yl)-4-morpholinothieno[3,2-d]pyrimidin-6-yl)benzoyl)piperazin-1-yl)prop-2-en-1-one]
14 | 100 to 1000 | – | > 1000 | CC(C)(C)C#CC(=O)CC[C@H](NC(=O)OC(C)(C)C)C(=O)N1CCN(Cc2cc3nc(-c4cccc5[nH]ncc45)nc(N4CCOCC4)c3s2)CC1 [II-a-51, (S)-tert-butyl 1-(4-((2-(1H-indazol-4-yl)-4-morpholinothieno[3,2-d]pyrimidin-6-yl)methyl)piperazin-1-yl)-8,8-dimethyl-1,5-dioxonon-6-yn-2-ylcarbamate]
15 | 100 to 1000 | – | > 1000 | CN(C)C/C=C/C(=O)NCC(=O)N1CCN(Cc2cc3nc(-c4cccc5[nH]ncc45)nc(N4CCOCC4)c3s2)CC1 [II-a-56, (E)-N-(2-(4-((2-(1H-indazol-4-yl)-4-morpholinothieno[3,2-d]pyrimidin-6-yl)methyl)piperazin-1-yl)-2-oxoethyl)-4-(dimethylamino)but-2-enamide]
16 | 100 to 1000 | – | > 1000 | CC(C)(C)/C=C\C(=O)CC[C@H](NC(=O)OC(C)(C)C)C(=O)N1CCN(Cc2cc3nc(-c4cccc5[nH]ncc45)nc(N4CCOCC4)c3s2)CC1 [II-a-52, (S)-tert-butyl 1-(4-((2-(1H-indazol-4-yl)-4-morpholinothieno[3,2-d]pyrimidin-6-yl)methyl)piperazin-1-yl)-8,8-dimethyl-1,5-dioxonon-6-en-2-ylcarbamate]
17 | > 1000 | – | > 1000 | O=C(/C=C/CNC(=O)CCCC(=O)NCCCOCCOCCOCCCNC(=O)CCCC[C@@H]1SC[C@@H]2NC(=O)N[C@@H]21)CCC(=O)N1CCN(Cc2cc3nc(-c4cccc5[nH]ncc45)nc(N4CCOCC4)c3s2)CC1 [XIV-a-2, N1-((E)-7-(4-((2-(1H-indazol-4-yl)-4-morpholinothieno[3,2-d]pyrimidin-6-yl)methyl)piperazin-1-yl)-4,7-dioxohept-2-enyl)-N5-(15-oxo-19-((3aS,4S,6aR)-2-oxohexahydro-1H-thieno[3,4-d]imidazol-4-yl)-4,7,10-trioxa-14-azanonadecyl)glutaramide]
18 | 10 to 100 | – | > 1000 | C=CC(=O)N1CCN(c2ccc(-c3cc4nc(-c5cccc(O)c5)nc(N5CCOCC5)c4s3)cc2)CC1 [II-a-58, 1-(4-(4-(2-(3-hydroxyphenyl)-4-morpholinothieno[3,2-d]pyrimidin-6-yl)phenyl)piperazin-1-yl)prop-2-en-1-one]
19 | 100 to 1000 | – | > 1000 | C/C=C/C(=O)CCC(=O)N1CCN(c2ccnc3ccc(/C=C4\SC(=O)NC4=O)cc23)CC1 [V-2, (Z)-5-((4-(4-((E)-4-oxohept-5-enoyl)piperazin-1-yl)quinolin-6-yl)methylene)thiazolidine-2,4-dione]
20 | > 1000 | – | > 1000 | C=CC(=O)NCCN1CCN(Cc2cc3nc(-c4cccc5[nH]ncc45)nc(N4CCOCC4)c3s2)CC1 [II-a-59]
21 | > 1000 | – | 100 to 1000 | C=CC(=O)n1cc(-c2ccc3c(c2)N(c2nc4c(s2)C(=O)NC(C)(C)C4)CCO3)cn1 [VI-1, 2-(6-(1-acryloyl-1H-pyrazol-4-yl)-2H-benzo[b][1,4]oxazin-4(3H)-yl)-6,6-dimethyl-6,7-dihydrothiazolo[5,4-c]pyridin-4(5H)-one]
